Patent US8741836B2, “Polypeptides” (Novo Nordisk A/S, priority 2011, dated 2014)
Where two headings read alike, the source gives them in different places. Starred links: 1 amine or outer side, 2 acyl side, 3 side chain; linkers in the order of their positions; H or OH if unused. Positions of bridges follow the written chain, without caps; N, C: chain ends. Residues, ends and D or L forms follow the SMILES beside them. Groups on a side chain read outwards from the residue. *: point of attachment. C20 diacid = O=C(O)CCCCCCCCCCCCCCCCCCC(=O)*; C18 diacid = O=C(O)CCCCCCCCCCCCCCCCC(=O)*; γGlu = O=C(O)[C@H](CCC(=O)[*:2])N[*:1]; AEEA = NCCOCCOCC(=O)O

Legend:
[1] = target: T1, human amylin 3(a) receptor (human calcitonin receptor + RAMP-3) (Homo sapiens, UniProt O60896+P30988); experiment: Assay (II)a functional assay, human amylin receptor (CRE luciferase reporter in BHK cells); assay type: cell-based
T1 construct: expressed in transfected cells; CRE-luciferase reporter
T1 sequence (P30988 25-474): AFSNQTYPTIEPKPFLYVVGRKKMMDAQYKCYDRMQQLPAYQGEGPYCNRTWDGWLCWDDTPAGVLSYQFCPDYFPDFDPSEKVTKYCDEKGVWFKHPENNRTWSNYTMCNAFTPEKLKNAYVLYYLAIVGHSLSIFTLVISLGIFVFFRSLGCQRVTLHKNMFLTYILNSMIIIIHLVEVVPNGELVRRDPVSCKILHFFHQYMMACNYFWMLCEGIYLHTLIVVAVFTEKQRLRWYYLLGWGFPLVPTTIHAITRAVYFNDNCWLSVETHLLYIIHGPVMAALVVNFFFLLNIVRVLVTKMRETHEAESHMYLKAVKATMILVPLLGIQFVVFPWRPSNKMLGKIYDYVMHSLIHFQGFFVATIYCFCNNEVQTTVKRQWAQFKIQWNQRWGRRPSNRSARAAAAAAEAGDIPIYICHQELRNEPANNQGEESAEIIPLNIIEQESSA
T1 sequence (O60896 24-148 partner): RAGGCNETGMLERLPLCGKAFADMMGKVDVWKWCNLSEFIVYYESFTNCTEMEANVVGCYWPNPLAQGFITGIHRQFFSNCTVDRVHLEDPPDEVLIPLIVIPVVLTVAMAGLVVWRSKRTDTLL
Description: (§1) 1. Luciferase Assay Outline
(§2) Activation of calcitonin and amylin (coexpression of calcitonin receptor and receptor activity modifying proteins (RAMP)) receptors lead to increased intracellular concentrations of cAMP. Consequently, transcription is activated by promoters containing multiple copies of the cAMP response element (CRE). It is thus possible to measure amylin activity by the use of a CRE luciferase reporter gene introduced into BHK cells also expressing calcitonin or amylin receptors.
(§3) A BHK570 cell line was stably transfected with the human calcitonin receptor and a CRE-responsive luciferase reporter gene. The cell line was further transfected with RAMP-3, using standard methods. This turns the calcitonin receptor into an amylin 3(a) receptor. Methotrexate, Neomycin, and Hygromycin are selection markers for luciferase, the calcitonin receptor, and RAMP-3, respectively.
(§4) To perform activity assays, BHK calcitonin (a) receptor- or amylin 3(a)-receptor/CRE-luc cells were seeded in white 96 well culture plates at a density of about 20.000 cells/well. […] After incubation overnight at 37° C. and 5% CO2, the growth medium was replaced by 50 μl/well assay medium (DMEM (without phenol red), Glutamax™, 10% FBS, and 10 mM Hepes, pH 7.4). Further, 50 μl/well of standard or sample in assay buffer were added. After 3 hours incubation at 37° C. and 5% CO2, the assay medium with standard or sample were removed and replaced by 100 μl/well PBS. Further, 100 μl/well LucLite™ was added. The plates were sealed and incubated at room temperature for 30 minutes. Finally, luminescence was measured on a TopCounter (Packard) in SPC (single photon counting) mode.

[2] = target: T2, human calcitonin receptor (Homo sapiens, UniProt P30988); experiment: Assay (II)a functional assay, human calcitonin receptor (CRE luciferase reporter in BHK cells); assay type: cell-based
T2 construct: expressed in transfected cells; CRE-luciferase reporter
T2 sequence (P30988 25-474): T1 sequence (P30988 25-474)
Description: as §1, §2, §3, §4

[3] = Assay (IV) determination of solubility; assay type: physicochemical
Method: Assay (IV)—Determination of Solubility
The polypeptide was dissolved in water at −500 nmol/ml and mixed 1:1 with a series of buffers (100 mM glycylglycine pH 3.0, 100 mM glycylglycine pH 4.0, 100 mM glycylglycine pH 5.0, 100 mM bistrispropane pH 6.0, 100 mM bistrispropane pH 6.5, 100 mM bistrispropane pH 7.0, 100 mM bistrispropane pH 7.5, 100 mM bistrispropane pH 8.0). After 18 hours at room temperature the samples were centrifuged and the polypeptide concentration determined by HPLC.

[4] = Table 7, human calcitonin (CTa) receptor
[5] = Table 11, human amylin receptor
[6] = Table 11, human calcitonin receptor, read-out: CTa receptor human EC50

Structure (SMILES)	EC50 ([1]; Table 6, human amylin receptor)	EC50 [2, 4]	EC50 [1]	EC50 ([1]; Table 4)	EC50 ([1]; Table 7, human amylin receptor)	EC50 [1, 5]	EC50 [2, 6]	solubility at 18 h ([3]; bistrispropane buffer, pH 6.5, read-out: Solubility)	solubility at 18 h ([3]; bistrispropane buffer, pH 7.5, read-out: Solubility)	solubility at 18 h ([3]; bistrispropane buffer, pH 6.0, read-out: Solubility)	solubility at 18 h ([3]; bistrispropane buffer, pH 7.0, read-out: Solubility pH 7.0)	solubility at 18 h ([3]; bistrispropane buffer, pH 8.0, read-out: Solubility)	solubility at 18 h ([3]; glycylglycine buffer, pH 3.0, read-out: Solubility)	solubility at 18 h ([3]; glycylglycine buffer, pH 4.0, read-out: Solubility pH 4.0)	solubility at 18 h ([3]; glycylglycine buffer, pH 5.0, read-out: Solubility)	solubility at 18 h ([3]; pH 4.0, read-out: Solubility)	solubility at 18 h ([3]; pH 7.0, read-out: Solubility)
CC[C@H](C)[C@H](NC(=O)[C@@H]1CCCN1C(=O)CNC(=O)[C@H](CC(C)C)NC(=O)[C@H](CCC(=O)O)NC(=O)[C@H](CCC(N)=O)NC(=O)[C@@H](NC(=O)[C@H](C)NC(=O)[C@H](CCCNC(=N)N)NC(=O)[C@H](Cc1c[nH]cn1)NC(=O)[C@H](CC(C)C)NC(=O)[C@H](Cc1ccccc1)NC(=O)[C@H](CCC(=O)O)NC(=O)[C@H](C)NC(=O)[C@H](CC(C)C)NC(=O)[C@H](CCCNC(=N)N)NC(=O)[C@H](CCC(N)=O)NC(=O)[C@@H](NC(=O)[C@H](C)NC(=O)[C@@H]1CSSC[C@H](NC(=O)[C@H](Cc2c[nH]cn2)NC(=O)COCCOCCNC(=O)COCCOCCNC(=O)CC[C@H](NC(=O)CCCCCCCCCCCCCCCCCCC(=O)O)C(=O)O)C(=O)N[C@@H](CC(N)=O)C(=O)N[C@@H]([C@@H](C)O)C(=O)N[C@@H](C)C(=O)N[C@@H]([C@@H](C)O)C(=O)N1)[C@@H](C)O)[C@@H](C)O)C(=O)N[C@@H](CC(C)C)C(=O)N1CCC[C@H]1C(=O)N1CCC[C@H]1C(=O)N[C@H](C(=O)N[C@@H](CC(N)=O)C(=O)N[C@H](C(=O)NCC(=O)N[C@@H](CO)C(=O)N[C@@H](CC(N)=O)C(=O)N[C@H](C(=O)N[C@@H](Cc1ccc(O)cc1)C(N)=O)[C@@H](C)O)C(C)C)[C@@H](C)O [Example 23] ({C20 diacid-γGlu-AEEA-AEEA}-HCNTATCATQRLAEFLHRATQELGPILPPTNVGSNTY-NH2; disulfide 2-7)	0.385 nM	0.492 nM	–	–	–	–	–	–	–	–	–	–	–	–	–	–	–
CC(C)C[C@H](NC(=O)[C@H](CCCNC(=N)N)NC(=O)[C@H](CCC(N)=O)NC(=O)[C@@H](NC(=O)[C@H](C)NC(=O)[C@@H]1CSSC[C@H](NC(=O)[C@@H](N)CCCCNC(=O)CC[C@H](NC(=O)CCCCCCCCCCCCCCCCCCC(=O)O)C(=O)O)C(=O)N[C@@H](CC(N)=O)C(=O)N[C@@H]([C@@H](C)O)C(=O)N[C@@H](C)C(=O)N[C@@H]([C@@H](C)O)C(=O)N1)[C@@H](C)O)C(=O)N[C@@H](C)C(=O)N[C@@H](CCC(=O)O)C(=O)N[C@@H](Cc1ccccc1)C(=O)N[C@@H](CC(C)C)C(=O)N[C@@H](Cc1c[nH]cn1)C(=O)N[C@@H](Cc1c[nH]cn1)C(=O)N[C@@H](CO)C(=O)N[C@@H](CO)C(=O)N[C@@H](CCC(N)=O)C(=O)N[C@@H](CC(N)=O)C(=O)N[C@@H](Cc1ccccc1)C(=O)NCC(=O)N[C@@H](C)C(=O)N1CCC[C@H]1C(=O)N[C@@H](CC(C)C)C(=O)N[C@@H](CO)C(=O)N[C@@H](CO)C(=O)N[C@H](C(=O)N[C@@H](CC(N)=O)C(=O)N[C@H](C(=O)NCC(=O)N[C@@H](CO)C(=O)N[C@@H](CC(N)=O)C(=O)N[C@H](C(=O)N1CCC[C@H]1C(N)=O)[C@@H](C)O)C(C)C)[C@@H](C)O [Example 151, N-epsilon1-[(S)-4-Carboxy-4-(19-carboxynonadecanoylamino)butyryl]-[Glu14,His17,Gln21,Ala25,Pro26,Ser28,Ser29,Pro37]-pramlintide] (H-K([γGlu-C20 diacid])CNTATCATQRLAEFLHHSSQNFGAPLSSTNVGSNTP-NH2; disulfide 2-7 (inferred); N-terminus assumed)	0.209 nM	0.0675 nM	0.209 nM	0.209 nM	0.209 nM	0.209 nM	0.0675 nM	> 200 µM	> 200 µM	> 200 µM	> 200 µM	> 200 µM	> 200 µM	> 200 µM	> 200 µM	>200 µM	>200 µM
CC[C@H](C)[C@H](NC(=O)[C@H](CCCCNC(=O)COCCOCCNC(=O)COCCOCCNC(=O)CC[C@H](NC(=O)CCCCCCCCCCCCCCCCC(=O)O)C(=O)O)NC(=O)CNC(=O)[C@H](Cc1ccccc1)NC(=O)[C@H](CC(N)=O)NC(=O)[C@H](CC(N)=O)NC(=O)[C@H](CO)NC(=O)[C@H](CO)NC(=O)[C@H](Cc1c[nH]cn1)NC(=O)[C@@H](NC(=O)[C@H](CC(C)C)NC(=O)[C@H](Cc1ccccc1)NC(=O)[C@H](CCC(=O)O)NC(=O)[C@H](C)NC(=O)[C@H](CC(C)C)NC(=O)[C@H](CCCNC(=N)N)NC(=O)[C@H](CCC(N)=O)NC(=O)[C@@H](NC(=O)[C@H](C)NC(=O)[C@@H]1CSSC[C@H](NC(=O)[C@@H](N)CCCCN)C(=O)N[C@@H](CC(N)=O)C(=O)N[C@@H]([C@@H](C)O)C(=O)N[C@@H](C)C(=O)N[C@@H]([C@@H](C)O)C(=O)N1)[C@@H](C)O)C(C)C)C(=O)N[C@@H](CC(C)C)C(=O)N1CCC[C@H]1C(=O)N1CCC[C@H]1C(=O)N[C@H](C(=O)N[C@@H](CC(N)=O)C(=O)N[C@H](C(=O)NCC(=O)N[C@@H](CO)C(=O)N[C@@H](CC(N)=O)C(=O)N[C@H](C(=O)N[C@@H](Cc1ccc(O)cc1)C(N)=O)[C@@H](C)O)C(C)C)[C@@H](C)O [Example 126] (H-KCNTATCATQRLAEFLVHSSNNFGK([AEEA-AEEA-γGlu-C18 diacid])ILPPTNVGSNTY-NH2; disulfide 2-7 (inferred); N-terminus and C-terminus assumed)	–	–	–	–	–	0.076 nM	0.101 nM	–	–	–	–	–	–	–	–	–	–
